How the values were obtained:
[1] = system: HCC827 cells (EGFR delE746-A750); experiment: Cell proliferation (CellTiter Glo, 72 hr), HCC827 cells; assay type: cell-based, human; details: proliferation, WT EGFR (A431) vs HCC827
Procedure: (§1) A431 human epidermoid carcinoma, H1975 human NSCLC and HCC827 human NSCLC adenocarcinoma cells were obtained from the American Type Culture Center (Manassas, Va.). A431 cells were grown in DMEM (Invitrogen, Carlsbad, Calif.) supplemented with 10% FBS (HyClone, South Logan, Utah) and 1% Penicillin-Streptomycin (P/S, Lonza, Walkersville, Md.).
(§2) Cells were plated in Growth Media supplemented with 5% FBS and 1% P/S at a density of 3,000 cells per well in 96 well tissue culture plates (Corning). […] Growth inhibition (GI50) values were determined by Graph Pad Prism.

pEGFR in H1975 cells = pEGFR in H1975 cells (Homo sapiens (Human), UniProt P00533, L858R/T790M); experiment: Washout experiment in H1975 cells; assay type: cell-based; details: 500 nM for 1 hr, then washout
Procedure: Washout Experiment in H1975 Cells Containing EGFR Deletion/T790M Mutation
Cells were plated in Growth Media supplemented with 10% FBS and 1% P/S at a density of 2.0×10^5 cells per well in 12 well tissue culture plates. Cells were allowed to settle down for 4 hrs and then maintained in low-serum (0.1% FBS) media overnight.
The following morning the media was removed and the cells were treated with 500 nM test compound in low-serum media for 1 hr. The cells were washed free of compound 2× with PBS (Invitrogen). One set of cells were immediately lysed as indicated above as the 0 hr time point. The remaining cells were incubated with complete RPMI-1640 growth media (10% FBS) for 1, 3, 6 and 24 hr. For the first 1 hr, cells were washed 2× with PBS every 30 min. DMSO (0.5%) controls were collected at the 0, 3, 6 and 24 hr time points.

[2] = system: H1975 cells (EGFR L858R/T790M); experiment: Cell proliferation (CellTiter Glo, 72 hr), H1975 cells; assay type: cell-based, human; details: proliferation, WT EGFR (A431) vs H1975
Procedure: as §1, §2

[3] = biological target: EGFR L858R/T790M (H1975 cells) (Homo sapiens (Human), UniProt P00533, L858R/T790M); experiment: Phospho-EGFR signaling immunoblot (1 hr), H1975 cells; assay type: cell-based; details: WT EGFR (A431) vs H1975
Procedure: as §1
All primary antibodies were obtained from Cell Signaling (Danvers, Mass.) and used at 1:1000. Secondary antibodies were used at 1:10,000. Goat anti-mouse IgG IRDye 800CW antibody was obtained from LiCor Biosciences (Lincoln, Nebr.) and goat anti-rabbit IgG Alexa Fluor 680 was obtained from Invitrogen.
Cells were grown in 12-well plates (Corning, Coring, N.Y.) to 90% confluence and then incubated in low-serum (0.1% FBS) media for 16-18 hr. […] A431 cells were then stimulated with 50 ng/ml EGF (Peprotech, Rocky Hill, N.J.) for 15 min. After treatment, cell monolayers were washed with cold PBS (Invitrogen) and immediately lysed by scrapping into 60 uL cold Cell Extraction Buffer (Invitrogen) supplemented with Complete Protease inhibitors (Roche, Indianapolis, Ind.) and PhosphoSTOP (Roche) phosphatase inhibitors.
Phospho-protein signals were quantitated using Odyssey Infrared Imaging (Li-Cor Biosciences).
To assess phosphor-EGFR signaling, blots were probed with rabbit anti-Phospho-EGFR (Y1068) and mouse total anti-EGFR antibodies. Phospho-EGFR signal was normalized to total EGFR expression for each sample. […] Normalized data was fitted using a sigmoidal curve analysis program (Graph Pad Prism version 5) with variable Hill slope to determine the EC50 values.

## C=CC(=O)Nc1cccc(Nc2nc(Nc3ccc(N4CCOCC4)cc3OC)ncc2C(F)(F)F)c1 [Compound I-2, N-(3-(2-(2-methoxy-4-morpholinophenylamino)-5-(trifluoromethyl)pyrimidin-4-ylamino)phenyl)acrylamide]
[1]
  Ratio WT/mutant: >40
pEGFR in H1975 cells
  duration of action after compound removal: prolonged duration of action after compound removal
[2]
  Ratio WT/mutant: >20
[3]
  Ratio WT/mutant: >50

From patent US11096942B2, “Heterocyclic compounds and uses thereof” (Celgene CAR LLC, priority 2010, dated 2021)
